The text below walks through data of US5081241A, “Spiro-pyridazines and analogs thereof useful as aldose reductase inhibitors” (American Home Products Corporation, priority 1990, dated 1992).

One assay concerns the target T1, aldose reductase (Bos taurus, UniProt P16116).
T1 construct: preparation of the enzyme from bovine lens; from tissue; host or cells: bovine lens
As to the kind of experiment: in vitro aldose reductase inhibition (modified Hayman and Kinoshita procedure; enzyme from bovine lens). Type of assay: biochemical. To be noted: 10^-5. As to the method:
(§1) (c) The polyol determination was performed by a modification of the procedure of M. Kraml and L. Cosyns, Clin. Biochem., 2, 373 (1969). Only two minor reagent changes were made: (a) the rinsing mixture was an aqueous 5% (w/v) trichloroacetic acid solution and (b) the stock solution was prepared by dissolving 25 mg of dulcitol in 100 mL of an aqueous trichloroacetic acid solution. [N.B.: For each experiment the average value found in the tissue from rats fed the glucose diet was subtracted from the individual values found in the corresponding tissue in galactose-fed rats to obtain the amount of polyol accumulated.] The aldose reductase inhibiting effects of the compounds of formula (I) were also tested by employing an in vitro testing procedure similar to that described by S. Hayman and J. H. Kinoshita, J. Biol. Chem., 240, 877 (1965). In the present case the procedure of Hayman and Kinoshita was modified in that the final chromatography step was omitted in the preparation of the enzyme from bovine lens.

For assay [1], the system named is accumulation of dulcitol in the lenses, sciatic nerves and diaphragm of rats fed galactose. Kind of assay: in vivo lowering of galactitol (dulcitol) accumulation in galactosemic rats. Set-up: species or system male Sprague-Dawley rats.
Source text: The aldose reductase inhibiting property of the compounds of this invention and the utilization of the compounds in preventing, diminishing and alleviating diabetic complications are demonstrable in experiments using galactosemic rats, see Dvornik et al., Science, 182, 1146 (1973). Such experiments are exemplified hereinbelow after the listing of the following general comments pertaining to these experiments:
(a) Four or more groups of six male rats, 50-70 g, Sprague-Dawley strain, were used. The first group, the control group, was fed a mixture of laboratory chow (rodent Laboratory Chow, Purina) and glucose at 20% (w/w %) concentration. An untreated galactosemic group was fed a similar diet in which galactose was substituted for glucose. The third group was fed a diet prepared by mixing a given amount of the test compound with the galactose containing diet. The concentration of galactose in the diet of the treated groups was the same as that for the untreated galactosemic group.
(b) After four days, the animals were killed by euthanization. Both the lens and sciatic nerve were removed, weighed and stored frozen for polyol determination.
as §1
The figures under L, N, and D represent the percentage decrease of dulcitol accumulation in the tissues of the lens, sciatic nerve, and diaphragm, respectively, for treated rats as compared to untreated rats.

The mark [2] stands for this setting: feed or water, 55 mg/kg/day, 96 h.

`CN1C(=O)CC2(C(=O)N(Cc3ccc(Br)cc3F)C(=O)c3ccc(F)cc32)C(=O)N1C` (centres unmarked) [R^1 = F, R^5 = CH3, 2-[(4-bromo-2-fluorophenyl)methyl]-6-fluoro-1',2'-dimethylspiro[isoquinoline-4(1H),4'(1'H)-pyridazine]-1,3,3',6'(2H,2'H,5'H)-tetrone]: at aldose reductase, the “% Inhibition In Vitro” value worked out at 5%. Moreover, the “% Lowering Galacititol Accumulation In Vivo % (D)” value in assay [1] (diaphragm, dose 47 mg/kg/day in diet, 4 days, vs untreated galactosemic rats) is 59%. In addition, the “% Lowering Galacititol Accumulation In Vivo % (L)” value in assay [1] (lens, dose 47 mg/kg/day in diet, 4 days, vs untreated galactosemic rats) is listed as 18%.

In the case of `CN1C(=O)CC2(C(=O)N(Cc3ccc(Br)cc3F)C(=O)c3ccccc32)C(=O)N1C` (centres unmarked) [R^1 = H, R^5 = CH3, 2-[(4-bromo-2-fluorophenyl)methyl]-1',2'-dimethylspiro[isoquinoline-4(1H),4'(1'H)-pyridazine]-1,3,3',6'(2H,2'H,5'H)-tetrone], the “% Inhibition In Vitro” value on aldose reductase is 6%. Also, the “% Lowering Galacititol Accumulation In Vivo % (D)” value in assay [1] (diaphragm, dose 25 mg/kg/day in diet, 4 days, vs untreated galactosemic rats) is given as 48%; in assay [1] (setting [2]), 82%.

Consider `CN1NC(=O)C2(CC1=O)C(=O)N(Cc1ccc(Br)cc1F)C(=O)c1ccccc12` (centres unmarked) [R^1 = H, R^5 = H, 2-[(4-bromo-2-fluorophenyl)methyl]-1'-methylspiro[isoquinoline-4(1H),4'(1'H)-pyridazine]-1,3,3',6'(2H,2'H,5'H)-tetrone], for which the “% Inhibition In Vitro” value at aldose reductase is given as 21%. Also, in assay [1] (setting [2]), the “% Lowering Galacititol Accumulation In Vivo % (D)” value came out at 21%.
